One block for each molecule: values may come before it.
Tests used:
BRD4 = assay: target protein degradation by immunoblotting (Experimental Example 6); format: cell-based, human, mouse; settings: HEK293T, LNcap and MEF cell lines, 24 hours
Description: (§1) In order to evaluate the target proteion degradation efficacy by Examples 14 to 33 according the disclosure, the following experiment was conducted.
(§2) First, as cell lines primarily expressing the target protein, Human kidney-derived cancer cells, HEK293T (ATCC, CRL-3216), human prostate-derived cancer cells, LNcap (Korean Cell Line Bank, Korean Cell Line Research Foundation, KCLB No. 80018), mouse embryonic fibroblast, MEF (ATCC, SCRC-1008), human cervical cancer cells, HeLa (Korean Cell Line Bank, Korean Cell Line Research Foundation, KCLB No. 10002), human blood-derived cells, K562 (Korean Cell Line Bank, Korean Cell Line Research Foundation, KCLB No. 10243), human blood-derived cells, THP-1 (Korean Cell Line Bank, Korean Cell Line Research Foundation, KCLB No. 40202), human lung-derived cancer cells, A549 (Korean Cell Line Bank, Korean Cell Line Research Foundation, KCLB No. 10185), human breast-derived cancer cells, MCF7 (Korean Cell Line Bank, Korean Cell Line Research Foundation, KCLB No. 30022), human neuroblastoma, SH-SY5Y cell lines (Korean Cell Line Bank, Korean Cell Line Research Foundation, KCLB No. 22266), human pancreatic cancer cells, PANC-1 (Korean Cell Line Bank, Korean Cell Line Research Foundation, KCLB No. 21469) were cultured, respectively, in an incubator maintained at 5% carbon dioxide, using DMEM containing 10% FBS and 1% streptomycin/penicillin, RPMI1640, or MEM medium, and then the respective cells were dispensed in 12-well plate. Additional incubation was performed for 24 hours to ensure that each cell completely fixed to the surface of the plate.
(§3) In order to confirm whether Compounds A to W of Examples 14 to 33 degrade the target protein respectively, the cultured cells were treated with the compound of each example for 24 hours and then collected.
(§4) In this case, HEK293T, which is human kidney-derived cancer cells, LNcap, which is human prostate-derived cancer cells, and MEF cell line, which is mouse embryonic fibroblasts, were treated with Example 14 (Compound A). […]

BRD3 = assay: as above; format: cell-based, human, mouse; settings: HEK293T, LNcap and MEF cell lines, 24 hours
Description: as §1, §2, §3, §4

BRD2 = assay: as above; format: cell-based, human, mouse; settings: HEK293T, LNcap and MEF cell lines, 24 hours
Description: as §1, §2, §3, §4

PDE4 = assay: as above; format: cell-based, human; settings: HEK293T, 24 hours
Description: as §1, §2, §3
(§5) In this case, HEK293T, which is human kidney-derived cancer cells, LNcap, which is human prostate-derived cancer cells, and MEF cell line, which is mouse embryonic fibroblasts, were treated with Example 14 (Compound A). HEK293T, which is human kidney-derived cancer cells, was treated with Example 15 (Compound B). HEK293T cell line, which is human kidney-derived cancer cells, and HeLa cell line, which is cervical-derived cancer cells, were treated with Example 16 (Compound C). HEK293T cell line, which is human kidney-derived cancer cells, was treated with Example 17 (Compound D). K562 cell line, which is human blood-derived cells, was treated with Example 18 (Compound E). HEK293T cell line, which is human kidney-derived cancer cells, was treated with Example 19 (Compound F). THP-1 cell line, which is human blood-derived cells, was treated with Example 20 (Compound G). A549 cell line, which is human lung-derived cancer cells, was treated with Example 21 (Compound H). A549 cell line, which is human lung-derived cancer cells, was treated with Example 22 (Compound I). MCF7 cell line, which is human breast-derived cancer cells, was treated with Example 23 (Compound J). HEK293T cell line, which is […], was treated with Example 24 (Compound L). SH-SY5Y, which is human neuroblastoma, and HeLa cell line, which is cervical-derived cancer cells, were treated with Example 25 (Compound M). THP-1 cell line, which is human blood-derived cells, was treated with Example 26 (Compound P). SH-SY5Y, which is human neuroblastoma, and HeLa cell line, which is cervical-derived cancer cells, were treated with Example 27 (Compound Q). SH-SY5Y, which is human neuroblastoma, and HeLa cell line, which is cervical-derived cancer cells, were treated with Example 28 (Compound R). HeLa cell line, a human cervical-derived cancer cell, was treated with Example 29 (Compound S). SH-SY5Y cell line, which is human neuroblastoma, was treated with Example 30 (Compound T). SH-SY5Y cell line, which is human neuroblastoma, was treated with Example 31 (Compound U). PANC-1 cell line, which is human pancreatic-derived cancer cells, was treated with Example 32 (Compound V). […]

ACVR1 = molecular target: T1, ACVR1 (Homo sapiens, UniProt Q04771); assay: as above; format: cell-based; settings: HEK293T and HeLa cell lines, 24 hours
T1 construct: as cell lines primarily expressing the target protein; endogenous in cells; host or cells: HEK293T, HeLa
Description: as §1, §2, §3, §5

Chk1 = molecular target: T2, Chk1 (Homo sapiens, UniProt O14757); assay: as above; format: cell-based; settings: HEK293T cell line, 24 hours
T2 construct: as cell lines primarily expressing the target protein; endogenous in cells; host or cells: HEK293T
Description: as §1, §2, §3, §5

BCR-Abl = molecular target: T3, BCR-Abl (Homo sapiens, UniProt P00519); assay: as above; format: cell-based; settings: K562 cell line, 24 hours
T3 construct: BCR (N-terminal fusion partner, P11274); endogenous in cells; host or cells: K562; the other entry of the earlier key: BCR (P11274, Breakpoint cluster region protein)
Description: as §1, §2, §3, §5

c-Abl = molecular target: T4, c-Abl (Homo sapiens, UniProt P00519); assay: as above; format: cell-based; settings: K562 cell line, 24 hours
T4 construct: as cell lines primarily expressing the target protein; endogenous in cells; host or cells: K562
Description: as §1, §2, §3, §5

CK2 = assay: as above; format: cell-based, human; settings: HEK293T cell line, 24 hours
Description: as §1, §2, §3, §5

ERα = molecular target: T5, ERα (Homo sapiens, UniProt P03372); assay: as above; format: cell-based; settings: MCF7 cell line, 24 hours
T5 construct: as cell lines primarily expressing the target protein; endogenous in cells; host or cells: MCF7
Description: as §1, §2, §3, §5

Tau = assay: as above; format: cell-based, human; settings: SH-SY5Y cell line, 24 hours
Description: as §1, §2, §3, §5

[1] = test system: p62 and each target protein; assay: p62-mediated delivery of target proteins to autophagy by immunofluorescence staining and confocal microscopy; format: cell-based; settings: cells cultured 24 hours with compound
Description: In order to confirm the efficacy of P62-mediated delivery of target proteins to autophagy after treatment with the example compounds of the disclosure, immunofluorescence staining was performed by using p62 and each target protein as markers. The cover glass was placed on a 24-well plate for immunofluorescence staining, cell lines primarily expressing the target protein or gene recombinant cell lines were cultured. The cells were dispensed and cultured 24 hours, and then treated with Example 1 (ATCRET-1104), Example 5 (Anle138b F105), Example 7 (Vinclozolin 2204), Example 8 (PHTPP 1304), Example 9 (Baicalein 2204), Example 10 (Resveratrol 1105), Example Example 11 (BTA-1 1104), Example 30 (Compound T) according to the disclosure, respectively. The cells were further cultured for 24 hours for the action of the compounds, the medium was removed, and the cells were fixed using formaldehyde at room temperature. In order to prevent non-specific staining, the cells were reacted with the blocking solution at room temperature for 1 hour, and then the p62 antibody and target protein antibody diluted at a certain ratio were treated using the block solution, and then reacted at room temperature for 1 hour. […]

p-53 = molecular target: T6, p-53 (Homo sapiens, UniProt P04637, R273H); assay: target protein degradation by immunoblotting (Experimental Example 6); format: cell-based; settings: PANC-1 cell line, 24 hours
T6 construct: endogenous in cells; host or cells: PANC-1
Description: as §1, §2, §3, §5

T2 sequence (O14757 whole entry): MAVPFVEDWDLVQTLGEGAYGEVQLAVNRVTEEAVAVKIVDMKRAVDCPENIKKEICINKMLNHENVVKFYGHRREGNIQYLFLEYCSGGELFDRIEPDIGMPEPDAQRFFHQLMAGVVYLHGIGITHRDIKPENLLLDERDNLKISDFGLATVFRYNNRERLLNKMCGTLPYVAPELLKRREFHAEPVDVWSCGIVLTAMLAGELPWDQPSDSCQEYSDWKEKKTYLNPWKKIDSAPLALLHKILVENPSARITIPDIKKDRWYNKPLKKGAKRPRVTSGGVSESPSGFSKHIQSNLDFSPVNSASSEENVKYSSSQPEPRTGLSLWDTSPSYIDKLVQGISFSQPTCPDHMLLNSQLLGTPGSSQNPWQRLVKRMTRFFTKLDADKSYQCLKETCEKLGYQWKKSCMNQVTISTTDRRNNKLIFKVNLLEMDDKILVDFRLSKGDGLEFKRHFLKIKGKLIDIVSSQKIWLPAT
T5 sequence (P03372 whole entry): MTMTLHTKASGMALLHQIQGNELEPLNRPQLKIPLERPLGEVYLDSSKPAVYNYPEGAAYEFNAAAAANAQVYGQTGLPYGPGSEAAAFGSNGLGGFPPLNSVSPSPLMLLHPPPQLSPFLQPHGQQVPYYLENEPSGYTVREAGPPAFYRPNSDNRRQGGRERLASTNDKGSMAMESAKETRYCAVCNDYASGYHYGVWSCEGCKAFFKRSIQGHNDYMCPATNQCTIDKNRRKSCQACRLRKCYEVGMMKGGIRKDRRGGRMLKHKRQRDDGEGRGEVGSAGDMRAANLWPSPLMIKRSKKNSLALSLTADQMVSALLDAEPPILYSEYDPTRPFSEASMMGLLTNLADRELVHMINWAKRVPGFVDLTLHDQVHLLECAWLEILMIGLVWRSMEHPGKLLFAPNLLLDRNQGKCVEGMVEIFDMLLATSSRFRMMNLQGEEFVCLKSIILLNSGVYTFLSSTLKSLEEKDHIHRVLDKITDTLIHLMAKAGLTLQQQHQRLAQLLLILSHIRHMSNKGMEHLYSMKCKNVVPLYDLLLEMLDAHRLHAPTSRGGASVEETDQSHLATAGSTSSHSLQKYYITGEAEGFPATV
T1 sequence (Q04771 21-509): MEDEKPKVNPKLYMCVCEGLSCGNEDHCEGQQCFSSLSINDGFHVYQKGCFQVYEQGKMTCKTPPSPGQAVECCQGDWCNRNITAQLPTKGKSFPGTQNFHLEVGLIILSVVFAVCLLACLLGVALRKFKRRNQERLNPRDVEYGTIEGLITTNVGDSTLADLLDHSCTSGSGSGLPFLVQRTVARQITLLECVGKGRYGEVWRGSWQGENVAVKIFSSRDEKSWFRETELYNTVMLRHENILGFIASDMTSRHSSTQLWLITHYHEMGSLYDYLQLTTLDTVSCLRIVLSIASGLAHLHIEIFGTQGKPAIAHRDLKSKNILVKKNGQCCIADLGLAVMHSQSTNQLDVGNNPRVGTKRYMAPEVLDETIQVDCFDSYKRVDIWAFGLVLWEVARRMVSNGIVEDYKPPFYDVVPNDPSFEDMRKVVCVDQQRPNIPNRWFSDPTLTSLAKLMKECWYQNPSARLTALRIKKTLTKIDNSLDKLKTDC

Structure (SMILES): Cc1sc2c(c1C)C(c1ccc(Cl)cc1)=N[C@@H](CC(=O)NCCOCCOCCNC[C@@H](O)COc1ccc(OCc3ccccc3)c(OCc3ccccc3)c1)c1nnc(C)n1-2 [Example 14, N-(2-(2-(2-(((R)-3-(3,4-bis(benzyloxy)phenoxy)-2-hydroxypropyl)amino)ethoxy)ethoxy)ethyl)-2-((S)-4-(4-chlorophenyl)-2,3,9-trimethyl-6H-thieno[3,2-f][1,2,4]triazolo[4,3-a][1,4]diazepin-6-yl)acetamide]
degradation of target protein BRD4 (decrease in level vs Control) (BRD4): can be degraded
degradation of target protein BRD3 (decrease in level vs Control) (BRD3): can be degraded
degradation of target protein BRD2 (decrease in level vs Control) (BRD2): can be degraded

Structure (SMILES): COc1ccc([C@]2(C#N)CC[C@@H](C(=O)NCCOCCOCCNCc3ccc(OCc4ccccc4)c(OCc4ccccc4)c3)CC2)cc1OC1CCCC1 [Example 15, (1s,4s)-N-(2-(2-(2-((3,4-bis(benzyloxy)benzyl)amino)ethoxy)ethoxy)ethyl)-4-cyano-4-(3-(cyclopentyloxy)-4-methoxyphenyl)cyclohexane-1-carboxamide]
degradation of target protein PDE4 (decrease in level vs Control) (PDE4): can be degraded

degradation of target protein ACVR1 (decrease in level vs Control) (ACVR1): can be degraded
Structure (SMILES): O[C@H](CNCCOCCOCCN1CCN(c2ccc(-c3cnc4c(-c5cccc6ncccc56)cnn4c3)cc2)CC1)COc1cccc(OCCc2ccccc2)c1 [Example 16, (R)-1-(3-phenethoxyphenoxy)-3-((2-(2-(2-(4-(4-(3-(quinolin-5-yl)pyrazolo[1,5-a]pyrimidin-6-yl)phenyl)piperazin-1-yl)ethoxy)ethoxy)ethyl)amino)propan-2-ol]

degradation of target protein Chk1 (decrease in level vs Control) (Chk1): can be degraded
Structure (SMILES): NC(=O)Nc1cc(-c2cccc(F)c2)sc1C(=O)N[C@H]1CCCN(CCOCCOCCNC[C@@H](O)COc2cccc(OCCc3ccccc3)c2)C1 [Example 17, 5-(3-fluorophenyl)-N—((S)-1-(2-(2-(2-(((R)-2-hydroxy-3-(3-phenethoxyphenoxy)propyl)amino)ethoxy)ethoxy)ethyl)piperidin-3-yl)-3-ureidothiophene-2-carboxamide]

degradation of target protein BCR-Abl (decrease in level vs Control) (BCR-Abl): can be degraded
degradation of target protein c-Abl (decrease in level vs Control) (c-Abl): can be degraded
Structure (SMILES): Cc1nc(Nc2ncc(C(=O)Nc3c(C)cccc3Cl)s2)cc(N2CCN(CCNCCOCCOCCNC[C@@H](O)COc3ccc(OCc4ccccc4)c(OCCCc4ccccc4)c3)CC2)n1 [Example 18, (R)-2-((6-(4-(15-(4-(benzyloxy)-3-(3-phenylpropoxy)phenoxy)-14-hydroxy-6,9-dioxa-3,12-diazapentadecyl)piperazin-1-yl)-2-methylpyrimidin-4-yl)amino)-N-(2-chloro-6-methylphenyl)thiazole-5-carboxamide]

Structure (SMILES): O=C(O)c1ccc2c(c1)nc(Nc1cccc(NCCOCCOCCNC[C@@H](O)COc3ccc(OCc4ccccc4)c(OCCc4ccccc4)c3)c1)c1ccncc12 [Example 19, (R)-5-((3-((2-(2-(2-((3-(4-(benzyloxy)-3-phenethoxyphenoxy)-2-hydroxypropyl)amino)ethoxy)ethoxy)ethyl)amino)phenyl)amino)benzo[c][2,6]naphthyridine-8-carboxylic acid]
degradation of target protein CK2 (decrease in level vs Control) (CK2): can be degraded

degradation of target protein ERα (decrease in level vs Control) (ERα): can be degraded
Structure (SMILES): CCN(CCCCNCCOCCOCCNCc1ccc(OCc2ccccc2)c(OCc2ccccc2)c1)CCOc1ccc(C(=O)c2c(-c3ccc(O)cc3)sc3cc(O)ccc23)cc1 [Example 23, (4-((1-(3,4-bis(benzyloxy)phenyl)-16-ethyl-5,8-dioxa-2,11,16-triazaoctadecan-18-yl)oxy)phenyl) (6-hydroxy-2-(4-hydroxyphenyl)benzo[b]thiophen-3-yl)methanone]

Structure (SMILES): O=C(CCCc1ccccc1)NCCOCCOCCOCCNC[C@@H](O)COc1cccc(OCc2ccc(F)cc2)c1 [Example 30, (R)—N-(15-(3-((4-fluorobenzyl)oxy)phenoxy)-14-hydroxy-3,6,9-trioxa-12-azapentadecyl)-4-phenylbutanamide]
degradation of target protein Tau (decrease in level vs Control) (Tau): can be degraded
intracellular puncta formation of p62 proteins and of target proteins, and local co-existence thereof [1]: increase gradually

Structure (SMILES): CN(CCOCCOCCOCCNC[C@@H](O)COc1ccc(OCc2ccc(F)cc2)c(OCc2ccc(F)cc2)c1)c1ccc2nc3ccc(=[N+](C)C)cc-3sc2c1 [Example 32, (R)—N-(7-((15-(3,4-bis((4-fluorobenzyl)oxy)phenoxy)-14-hydroxy-3,6,9-trioxa-12-azapentadecyl) (methyl)amino)-3H-phenothiazin-3-ylidene)-N-methylmethanaminium 2,2,2-trifluoroacetate]
degradation of target protein p-53 (decrease in level vs Control) (p-53): can be degraded

Structure (SMILES): CN(CCOCCOCCOCCNC[C@@H](O)COc1cccc(OCc2ccc(F)cc2)c1)c1ccc2nc3ccc(=[N+](C)C)cc-3sc2c1.O=C([O-])C(F)(F)F [Example 33, (R)—N-(7-((15-(3-((4-fluorobenzyl)oxy)phenoxy)-14-hydroxy-3,6,9-trioxa-12-azapentadecyl) (methyl)amino)-3H-phenothiazin-3-ylidene)-N-methylmethanaminium 2,2,2-trifluoroacetate]
degradation of target protein p-53 (decrease in level vs Control) (p-53): can be degraded

Source: patent publication US12383624B2, “Cargo delivery system and composition comprising the same” (SEOUL NATIONAL UNIVERSITY R&DB FOUNDATION, priority 2018, dated 2025)
